Molecules are shown by their SMILES. pIC50: −log10 of the molar value. Where two headings read alike, the source gives them in different places.

One data set deals with HCC1806 (TROP2+). The data set is described as follows: cytotoxic assay (CellTiter-Glo, 72 h) HCC1806. The note with it: Homo sapiens. The class given is cell-based, human. As for the experimental part:
(§1) Tumor cells were seeded on 96-well plates at the following concentrations: HCC1806 (3,000 cells per well), NCI-N87 (5,000 cells per well), BxPC-3 (2,000 cells per well), Calu-3 (8,000 cells per well), NCI-H23 (TROP2+, 3,000 cells per well), and NCI-H23 (parental, 3,000 cells per well). After overnight incubation, the diluted testing items were added respectively. After 72 h, cell viability was evaluated using a CellTiter-Glo Luminescent Cell Viability Assay (Promega Corp. Madison, WI), following the manufacturer’s instruction.

Another data set deals with HCC1806 xenograft. As to the kind of experiment: PK-PD study, single dose, HCC1806 xenograft. Conditions: tumor; payload after single i.v. 3 mg/kg SKB264 (KL610023) or IMMU-132 (SN-38); HCC1806 tumor-bearing mice; mean, n = 5. The class given is in vivo, BALB/c nude mice. As for the experimental part:
Phoenix WinNonlin 8.1 was used to calculate the PK parameters in the non-compartment model, including t 1/2, T max, C max, AUC0-t, and AUC0-∞. […] The half maximal effective concentration (EC50) and half maximal inhibitory concentration (IC50) were calculated using a nonlinear regression model with sigmoidal fitting. The in vitro antitumor activities of drugs were evaluated by a two-tailed paired t-test.

Data set [1] in a line: tissue distribution after single i.v. injection in tumor-bearing nude mice. Format: in vivo. Conditions: [3H]KL610023 0.1 mg/100 µCi/kg single i.v.; HCC1806 xenografted nude mice. As for the experimental part:
A total of 96 female nude mice bearing human HCC1806 tumor cells were divided into 16 groups (n = 6 mice/group) according to body weights and tumor volumes. After receiving a single i.v. injection of [^3H]KL610023, at 0.083, 4, 24, and 72 h, as well as a single i.v. injection of [^3H-KL610023]SKB264, [^3H]SKB264-mAb, or [^3H-mAb]SKB264 at 1, 24, 168, and 336 h post-dosing, blood, tumor tissue, and 16 types of normal tissues were collected from the euthanized mice.
Plasma samples were directly quantified by liquid scintillation counting (LSC) without further manipulation; however, the blood and tissue samples were digested with 1N of KOH at 90°C prior to quantification by LSC. The […] (TRA) for blood, plasma, and tissues was converted to nanogram equivalent of [^3H]KL610023 or TRA (ng Eq./g).

Data set [2] relates to HCC1806, NCI-N87, BxPC3, Calu3, NCI-H23 (TROP2+), NCI-H23 (parental). As to the kind of experiment: cytotoxic assay, range over the six tumor cell lines. Conditions: Homo sapiens, read-out: IC50 values, range over six cell lines. The class given is cell-based. As for the experimental part:
as §1
To evaluate the effect of SKB264 on tumor cell proliferation, in vitro growth inhibition of cancer cell lines was determined by CellTiter-Glo Luminescent Cell Viability Assay. Cancer cell lines, including HCC1806, NCI-N87, BxPC3, Calu3, and NCI-H23 (TROP2+), highly expressed TROP2, while NCI-H23 (parental) was TROP2-negative ( Figure 3 ). […] NCI-H23 (TROP2+) cells were more sensitive to SKB264 than parental cells (TROP2−). […] Taken together, after SKB264 endocytosed through its interaction with TROP2 on cell surface, the releasing free KL610023 can inhibit tumor cell proliferation.

A further data set concerns NCI-H23 (TROP2-). As to the kind of experiment: cytotoxic assay (CellTiter-Glo, 72 h) NCI-H23 (parental). Format: cell-based. Conditions: Homo sapiens, read-out: IC50 cell growth inhibition. As for the experimental part:
as §1

Take `CC[C@@]1(O)C(=O)OCc2c1cc1n(c2=O)Cc2c-1nc1ccccc1c2CCN(C(C)C)S(C)(=O)=O` [KL610023]: the pIC50 with HCC1806 (TROP2+) (HCC1806 (TROP2+), 72 h, Figure 2D, read-out: IC50 cell growth inhibition) is 8.82; in the data set on HCC1806 (TROP2+) (HCC1806, payload comparison, Figure 7C, duplicates, read-out: IC50 inhibition of proliferation of HCC1806 cells) it was 8.74; in data set [2], 8.22 to 8.87; with NCI-H23 (TROP2-), 8.67. For the same molecule, the “AUC0-∞ of payload” value with HCC1806 xenograft was 1949 ng·h/g. The molecule further came in with an AUClast of payload in the data set on HCC1806 xenograft of 1903 ng·h/g. Moreover, in data set [1], the “distribution of total radioactivity” value was “widely distributed in the tissues and organs that had more abundant blood flow”.
